Experimental data from publication PMC8632718, “Novel Assay Platform to Evaluate Intracellular Killing of Mycobacterium tuberculosis: In Vitro and In Vivo Validation” (Frontiers in Immunology, 2021).
Ends that are not written are not given here.

Legend:
[1] = format: in vitro ADME; details: rat liver lysosomal homogenate, 37 °C, LC-MS
Procedure: Next, we examined the enzymatic stability of two peptide conjugates in rat liver lysosomal homogenate (see Supplementary Information 2 for the method description). Peptides were dissolved at 0.025 µg/µl concentration then allowed to react with the lysosomal homogenate. Degradation of the conjugates was fast. […]
1.2 Lysosomal degradation studies
Enzymatic stability of INH-Dhvar4 and INH-Penetratin conjugates were assayed in rat liver lysosomal homogenate (protein content was 16.6 µg/µl). Peptides were dissolved in 0.2 M Sodium acetate buffer (pH=5.03) at 0.025 µg/µl concentration and added to the lysosomal homogenate to reach 1 : 1 protein / peptide ratio (37 °C, 600 rpm vortex) . At different time points (5 min, 30 min, 1 h, 6 h, 24 h) the reaction was stopped by the addition of 5 µl formic acid. Sampled were then measured by LC-MS using a Thermo Scientific Q Exactive Focus Hybrid Quadrupole -Orbitrap Mass Spectrometer (Suppl. Figu re 1). For chromatography, a Wa ters Acquity UPLC BEH C18 (1.7 µ, 150 × 2.1 mm) column was used with a flow rate of 300 µL/min applying a gradient elution from 2% to […]
(1 picture or pasted object on this page, not shown here)

[2] = Analytical RP-HPLC retention time (correlates with overall hydrophobicity); format: physicochemical; set-up: Rt (retention time): unit not given here; details: for Rt (retention time): chromatographic measure of hydrophobicity, Waters Acquity UPLC BEH C18 (1.7 µm, 150 × 2.1 mm), flow rate 0.3 ml/min, gradient 2% B 1 min, 2%–100% B 16 min, single peak or first of two 5(6)-Cf isomer peaks; for Rt (retention time), second peak: same column and gradient, second peak due to 5(6)-Cf isomers
Procedure: Purified peptides were analyzed by LC-MS using a Thermo Scientific Q Exactive Focus Hybrid Quadrupole-Orbitrap Mass Spectrometer. For the separation, a Waters Acquity UPLC BEH C18 (1.7 µm, 150 × 2.1 mm) column was used with a flow rate of 0.3 ml/min.
For INH conjugation, representative cell-penetrating (CPP) and antimicrobial peptides (AMP) were chosen. These cationic, amphiphilic peptides are favored in the transportation of various cargos due to their high internalization rate. The used peptide series contains well-known CPPs such as penetratin, transportan, and Tat, frequently studied AMPs such as magainin and buforin, and designed analogs such as Dhvar4, Crot(1-9,38-42), and CM15. Also, a receptor-binding tuftsin analog (OT20), which was reported as a macrophage-targeting peptide, was also applied. […] Mass spectra and RP-HPLC chromatograms are available at https://figshare.com/s/48a023a25068f7658adf, DOI: 10.6084/m9.figshare.16644901. […] To study the internalization rate and intracellular localization, fluorescently labeled analogs were also synthesized. Note that the retention time of Cf-peptide are somewhat higher than unlabeled analogs, and in some cases, two peaks were detected due to the isomeric distribution of 5(6)-Cf molecule.

[3] = test system: CALU-1 monolayer / EBC-1 cells; format: in vitro ADME, human; details: Transwell, 0.4 µm polycarbonate, Cf-peptide apical 10 and 20 µM, 45 min, apical to basolateral; EBC-1 fluorescence read-out
Procedure: EBC-1 lung squamous carcinoma and CALU-1 human lung epidermoid carcinoma were seeded on 24-well plates with Transwell inserts (TW) [Nunc, Sigma polycarbonate microporous membrane, 0.4 µm pore size (growth area 0.412 cm^2)]. Before use, TW inserts were incubated with ICM. On day 1, 300 μl of CALU-1 suspension in complete DMEM medium (8.0 × 10^5 cells) was pipetted onto the surface of the TW apical chamber and 500 μl complete DMEM medium was added to the basolateral side. In order to avoid nonattached cells, after incubation at 37°C for 5–6 h, the apical medium was removed and replaced with fresh complete DMEM medium. […] On day 5, the medium was changed, then Cf-peptide was added to the CALU-1-containing apical side at 10 and 20 µM concentrations, and the system was incubated for 45 min or 3 h (37°C, 5% CO2). The TW chamber was removed after incubation. EBC-1 cells were studied using flow cytometry (BD LSR II).
EBC-1 cells were treated without the presence of the TW inserts as controls (on day 4 prior to treatment, EBC-1 cells (10^5 cells/well in complete DMEM). […]
Figure 7 The penetration ability of Cf-peptides was determined on Transwell bronchial interface, and the penetration rates were quantified by flow cytometry. […] The confluence of CALU-1 monolayer was monitored with CellTracker Green, and after development of stable green fluorescence, cells were imaged in situ. […]

MonoMac-6 cells = format: cell-based, human; details: 10 µM Cf-peptide, 2 h, LysoTracker, ImageJ JACoP on merged images
Procedure: Cellular uptake and localization were visualized by confocal laser scanning microscopy. MonoMac-6 cells were seeded 1 day prior to treatment into coverslips (thickness 1, Assistent, Karl Hecht GmbH, Sondheim vor der Rhön, Germany) containing a 24-well plate (Sarstedt, Nümbrecht, Germany) for microscopy studies at a density of 7.5 × 10^4 cells/well, in 1 ml complete DMEM medium. The following day, cells were treated with Cf-peptide at a concentration of 10 µM (diluted in serum-free DMEM medium) for 2 h. Lysosomes were stained by LysoTracker Deep Red (Invitrogen, Waltham, MA, USA) for 30 min, and nuclei were stained by Hoechst 33342 solution (Thermo Scientific, USA). After each step, cells were washed three times with serum-free medium, then cells were fixed by 4% paraformaldehyde for 15 min and mounted to microscopy slides with Mowiol 4-88 (Sigma, Budapest, Hungary). Imaging was performed by a Zeiss LSM-710 system (Carl Zeiss microscopy GmbH, Oberkochen, Germany) with a ×40/1.4 Plan-Apochromat oil immersion objective using lasers with the parameters: Cf peptides λex = 488 nm, λem = 541 nm, nuclei λex = 405 nm, λem = 467 nm (Hoechst 33342), lysosomes λex = 633 nm, λem = 720 nm (LysoTrackerTM Deep Red) or λex = 577 nm, λem = 590 nm (LysoTrackerTM Red DND-99) were used. Zeiss ZEN lite software (Carl Zeiss Microscopy GmbH, Jena, Germany) was used for image processing.
Parallel with flow cytometry measurements, confocal laser scanning microscopy images were also captured in order to assess qualitative information on intracellular localization. LysoTrackerTM Deep Red was used for lysosome and Hoechst 33342 for nuclear staining to distinguish subcellular localization of the Cf-peptide. […] Colocalization of Cf-peptide and LysoTracker may be subjectively identified by the cooccurrence, the simple spatial overlap which combined the contribution of both signals (green and red) when the images of each signal are superimposed (merged, see Supplementary Figure S3 ).
microscopy at the 10 µM Cf-peptide concentration (based on flow cytometry profile), and MonoMac6 cells were incubated for 2 hrs.
the visible differences among localization profiles of the Cf-peptides, we applied greyscale analysis of
the images and the evaluation was carried out on a representative peptide set.
were studied and the treatment, the staining and fixation process were carefully optimized to assess
Laser intensity values were identical in case of all Cf-peptides. ZEN 3.0 blue lite software
was used for image processing and grey scale values were extracted using NIH ImageJ software’s Plot

| Compound | Rt (retention time) [2] | other results |
| --- | --- | --- |
| CC[C@H](C)[C@H](NC(=O)[C@H](CCCCN)NC(=O)[C@@H](NC(=O)[C@H](CCC(N)=O)NC(=O)[C@H](CCCNC(=N)N)NC(=O)CNNC(=O)c1ccncc1)[C@@H](C)CC)C(=O)N[C@@H](Cc1c[nH]c2ccccc12)C(=O)N[C@@H](Cc1ccccc1)C(=O)N[C@@H](CCC(N)=O)C(=O)N[C@@H](CC(N)=O)C(=O)N[C@@H](CCCNC(=N)N)C(=O)N[C@@H](CCCNC(=N)N)C(=O)N[C@@H](CCSC)C(=O)N[C@@H](CCCCN)C(=O)N[C@@H](Cc1c[nH]c2ccccc12)C(=O)N[C@@H](CCCCN)C(=O)N[C@@H](CCCCN)C(N)=O [INH-Penetratin] | – | peaks of the intact conjugates after 30 min of incubation ([1]; 0.2 M sodium acetate buffer pH 5.03, 0.025 µg/µl, 1:1 protein/peptide ratio): almost disappeared; most stable fragment (main peak after 24 h of incubation) ([1]; pH 5.03, 0.025 µg/µl): tetrapeptide (RQIK) with INH |
| CC[C@H](C)[C@H](NC(=O)CN)C(=O)NCC(=O)N[C@@H](C)C(=O)N[C@H](C(=O)N[C@@H](CC(C)C)C(=O)N[C@@H](CCCCN)C(=O)N[C@H](C(=O)N[C@@H](CC(C)C)C(=O)N[C@H](C(=O)N[C@H](C(=O)NCC(=O)N[C@@H](CC(C)C)C(=O)N1CCC[C@H]1C(=O)N[C@@H](C)C(=O)N[C@@H](CC(C)C)C(=O)N[C@H](C(=O)N[C@@H](CO)C(=O)N[C@@H](Cc1c[nH]c2ccccc12)C(=O)N[C@H](C(=O)N[C@@H](CCCCN)C(=O)N[C@@H](CCCNC(=N)N)C(=O)N[C@@H](CCCCN)C(=O)N[C@@H](CCCNC(=N)N)C(=O)N[C@@H](CCC(N)=O)C(=O)N[C@@H](CCC(N)=O)C(N)=O)[C@@H](C)CC)[C@@H](C)CC)[C@@H](C)O)[C@@H](C)O)C(C)C)C(C)C [Melittin, reference compound] | 10.6 | – |
| CC[C@H](C)[C@H](NC(=O)[C@H](CCCCN)NC(=O)[C@@H](NC(=O)[C@H](CCC(N)=O)NC(=O)[C@@H](N)CCCNC(=N)N)[C@@H](C)CC)C(=O)N[C@@H](Cc1c[nH]c2ccccc12)C(=O)N[C@@H](Cc1ccccc1)C(=O)N[C@@H](CCC(N)=O)C(=O)N[C@@H](CC(N)=O)C(=O)N[C@@H](CCCNC(=N)N)C(=O)N[C@@H](CCCNC(=N)N)C(=O)N[C@@H](CCSC)C(=O)N[C@@H](CCCCN)C(=O)N[C@@H](Cc1c[nH]c2ccccc12)C(=O)N[C@@H](CCCCN)C(=O)N[C@@H](CCCCN)C(N)=O [Penetratin, reference compound] | 6.1 | penetration through CALU-1 monolayer and internalization into EBC-1 cells [3]: higher internalization rates |
| N=C(N)NCCC[C@H](NC(=O)[C@H](CCCNC(=N)N)NC(=O)[C@H](CCCNC(=N)N)NC(=O)[C@H](CCC(N)=O)NC(=O)[C@H](CCCNC(=N)N)NC(=O)[C@H](CCCNC(=N)N)NC(=O)[C@H](CCCCN)NC(=O)[C@H](CCCCN)NC(=O)[C@H](CCCNC(=N)N)NC(=O)CNC(=O)[C@@H](N)Cc1ccc(O)cc1)C(N)=O [Tat, reference compound] | 0.9 | – |
| CC[C@H](C)[C@H](NC(=O)[C@H](CCCCN)NC(=O)[C@H](CCCCN)NC(=O)[C@H](C)NC(=O)[C@H](CC(C)C)NC(=O)[C@H](C)NC(=O)[C@H](C)NC(=O)[C@H](CC(C)C)NC(=O)[C@H](C)NC(=O)[C@H](CCCCN)NC(=O)[C@H](CC(C)C)NC(=O)[C@H](CC(N)=O)NC(=O)[C@@H](NC(=O)[C@H](CCCCN)NC(=O)CNC(=O)[C@H](CC(C)C)NC(=O)[C@H](CC(C)C)NC(=O)[C@H](Cc1ccc(O)cc1)NC(=O)CNC(=O)[C@H](C)N)[C@@H](C)CC)C(=O)N[C@@H](CC(C)C)C(N)=O [reference compound] | 10.6 | – |
| Cf-AGYLLGKINLKALAALAKKIL [Cf-Penetratin, 5(6)-carboxyfluorescein-labeled penetratin] | – | Pearson's coefficient of colocalization with lysosomal staining (MonoMac-6 cells): 0.490 |
| Cf-GIGAVLKVLTTGLPALISWIKRKRQQ [Cf-Melittin, 5(6)-carboxyfluorescein-labeled melittin] | 12.2 | – |
| Cf-GIGKFLHSAKKFGKAFVGEIMNS [Cf-Transportan, 5(6)-carboxyfluorescein-labeled transportan] | – | Pearson's coefficient of colocalization with lysosomal staining (MonoMac-6 cells): 0.823 |
| Cf-KWKLFKKIGAVLKVL [Cf-CM15, 5(6)-carboxyfluorescein-labeled CM15] | 9.6 | Rt (retention time), second peak [2]: 9.7; Pearson's coefficient of colocalization with lysosomal staining (MonoMac-6 cells): 0.358 |
| Cf-RAGLQFPVGRVHRLLRK [Cf-Buforin, 5(6)-carboxyfluorescein-labeled buforin] | 7.7 | Rt (retention time), second peak [2]: 7.8 |
| Cf-TKPKGTKPKGTKPKGTKPKG [Cf-OT20, 5(6)-carboxyfluorescein-labeled OT20] | 4.9 | Rt (retention time), second peak [2]: 5.0 |
| Cf-YGRKKRRQRRR [Cf-Tat, 5(6)-carboxyfluorescein-labeled Tat] | 4.6 | Rt (retention time), second peak [2]: 5.0 |
| Cf-YKQCHKKGGKKGSG [Cf-Crot(1-9,38-42), 5(6)-carboxyfluorescein-labeled Crot(1-9,38-42)] | 5.5 | Rt (retention time), second peak [2]: 5.8 |
| GIGKFLHSAKKFGKAFVGEIMNS-NH2 [Magainin, reference compound] | 8.2 | – |
| KWKLFKKIGAVLKVL-NH2 [CM15, reference compound] | 8.4 | – |
| RAGLQFPVGRVHRLLRK-NH2 [Buforin, reference compound] | 6.6 | – |
| TKPKGTKPKGTKPKGTKPKG-NH2 [OT20, reference compound] | 1.6 | – |
| YKQCHKKGGKKGSG-NH2 [Crot(1-9,38-42), reference compound] | 0.8 | – |
